Experimental data taken from patent US9605241B2, “Induction and stabilization of enzymatic activity in microorganisms” (Georgia State University Research Foundation, Inc., priority 2006, dated 2017).

Tests used:
asparaginase I [1] = assay: Asparaginase I production on supplemented medium; format: cell-based; details: asparagine and glutamine added 3.8 mM
Description: The induction of asparaginase I production in various nitrile hydratase producing microorganisms was evaluated. All strains were grown on YEMEA medium containing 7.5 g/L of urea and 10 ppm cobalt (provided as cobalt chloride) supplemented with asparagine (ASN), glutamine (GLN), or both asparagine and glutamine. The asparagine and glutamine were added 3.8 mM. As a comparative, enzyme production was also evaluated with supplementation was with acrylonitrile (AN), acrylamide (AMD) or acrylonitrile and acrylamide. Growth temperature was in the range of 26° C. to 30° C.

nitrile hydratase = assay: Nitrile hydratase induction by inducers (Example 1); format: cell-based, Rhodococcus sp., strain DAP 96253; details: Table 1 comparison
Description: The induction of nitrile hydratase activity and amidase activity in Rhodococcus sp., strain DAP 96253, was evaluated using multiple types of inducers (1000 ppm). Three different samples were cultured in YEMEA medium containing 10 ppm cobalt and 7.5 g/L urea and supplemented with acrylonitrile, asparagine, or glutamine. The specific nitrile hydratase activity and the specific amidase activity in each sample was evaluated, and the results are provided below in Table 1, with activities provided in units/mg cdw (cell dry weight). One unit of nitrile hydratase activity relates to the ability to convert 1 Arnol of acrylonitrile to its corresponding amide per minute, per milligram of cells (dry weight) at a of pH 7.0 and a temperature of 30° C. One unit of amidase activity relates to the ability to convert […] of acrylamide to its corresponding acid per minute, per milligram of cells (dry weight) pH of 7.0 and a temperature of 30° C.

asparaginase I [2] = assay: Effect of inducer and media composition on asparaginase I; format: cell-based; details: Rhodococcus sp. DAP 96253; inducer 1000 ppm
Description: Testing was performed to evaluate the effect on asparaginase I activity based upon the inducer used. In particular, testing was performed using asparagine, glutamine, succinonitrile, and isovaleronitrile as inducers (all added at 1000 ppm each).

Compound | ability to induce nitrile hydratase activity compared with acrylonitrile (nitrile hydratase) | ability to induce asparaginase I activity (in words) (asparaginase I [2]) | other results
C=CC#N [Acrylonitrile, acrylonitrile] |  |  | Asparaginase I Level Based on Growth Medium Supplementation (asparaginase I [1]; Pseudomonas chloroaphis ATCC 13985, 26 °C): 2 Units/mg cdw; Asparaginase I Level Based on Growth Medium Supplementation (asparaginase I [1]; Rhodococcus rhodochrous DAP 96622 ATCC 55898, 26 °C): 8.2 Units/mg cdw; Asparaginase I Level Based on Growth Medium Supplementation (asparaginase I [1]; Rhodococcus sp. DAP 96253 ATCC 55899, 30 °C): 7.8 Units/mg cdw
NC(=O)C[C@H](N)C(=O)O [Asparagine, asparagine] | exceeds the ability of acrylonitrile to induce such activity |  | 
N#CCCC#N [Succinonitrile, succinonitrile] |  | showed an ability to induce asparaginase I activity | 
NC(=O)CC[C@H](N)C(=O)O [Glutamine, glutamine] | exceeds the ability of acrylonitrile to induce such activity | showed an ability to induce asparaginase I activity | Asparaginase I Level Based on Growth Medium Supplementation (asparaginase I [1]; Pseudomonas chloroaphis ATCC 43051, 30 °C): No
